This passage reports melting point results from a melting point compilation (Tetko et al.; mined from patent text by program, amines drawn as free bases though some values may be those of a salt).

A word on the melting point: it is the temperature of the solid-liquid transition.

Each structure is given as a SMILES string.

In the case of `O=C(CNC(=O)c1ccc([N+](=O)[O-])cc1F)OCc1ccccc1`, the melting point was in the range of 104 to 106 °C.

As to `CC(C)N(C(C)C)S(=O)(=O)N[C@@H](Cc1ccc(Oc2nccc3cnccc23)cc1)C(=O)O`, the melting point stood at 112 °C.

`Nc1nc(O)c2c(n1)NCC(CCCCCC(=O)N[C@@H](CCC(=O)O)C(=O)O)C2` (stereo partly specified): the melting point was determined as 144 °C.

As to `CC(OC(=O)ON=C(C#N)c1ccccc1)C1CC1` (stereo unspecified), the melting point was in the range of 65 to 67 °C.

For `O=[N+]([O-])c1ccc(N2CCN(Cc3ccccc3)CC2)cc1CS(=O)(=O)c1ccccc1`, the melting point was in the range of 145 to 146 °C.

Molecule `CCOC(=O)CCCCCn1c(C(=O)O)cc2ccccc21` registered a melting point of 62 °C.

Take `COc1ccc(C(=O)Nc2ccccc2C(=O)c2ccccn2)cc1`: the melting point was in the range of 132 to 133 °C.

`C#CCNC(=O)c1ncn2c1[C@@H]1CCN1C(=O)c1ccccc1-2` gave a melting point of 214 to 215 °C.

`COC(=O)CCC(=O)c1ccc2c(c1)C(C)NC(=O)N2` (stereo unspecified) registered a melting point of 142 to 150 °C.

`CCCCCCOc1ccc(S(=O)(=O)N(CC(=O)NO)CC(C)C)cc1` gave a melting point of 108 to 110 °C.

`CC1(CC(=O)O)CCc2ccc3ccccc3c2C1=O` (stereo unspecified) came in with a melting point of 80 to 83 °C.

In the case of `COc1cccc(C2=Nc3ccc(N4CCCC4)cc3C(=O)C2)c1OC`, the melting point lay in the range of 258 to 260 °C.

`Nc1ccc(CCN2CCN(c3ccc(N)cc3)CC2)cc1` came in with a melting point of 156 to 158 °C.

Molecule `CCn1cnc2c(N)nc(Cl)nc21` came in with a melting point of 258 to 262 °C.

Take `Oc1cc(OCC(O)COc2ccccc2)ccc1C(=S)c1ccc(-c2ccccc2)cc1` (stereo unspecified): the melting point was 101 to 102 °C.

`C=C(Cl)COc1ccc(Br)cc1CN(CC)c1ccc(C(=O)O)cn1` showed a melting point of 207 to 209 °C.

For the molecule `Nc1ccc(C23CC(C2)C(=O)N(C2CCCCC2)C3=O)cc1`, the melting point turned out to be 139 °C.

The molecule `O=C(O)/C=C\C=C(c1ccccc1F)c1ccccc1F` showed a melting point of 147 to 148 °C.

For the molecule `CCOC(=O)C(=O)N1CCC(Cc2ccc(C(C)(C)C)cc2)CC1`, the melting point worked out at 168 °C.

Molecule `Cc1c(Cl)ccc(-n2c(-c3ccccc3)cc(=O)c(C)c2-c2ccccc2)c1Cl` returned a melting point of 237 to 238 °C.

`CCOC(=O)c1c[nH]cc1-c1ccc(Cl)cc1` came in with a melting point of 137 to 138 °C.

For `CCC(CC)Nc1cc(C(=O)O)ccc1N1C(=O)CCC1(CO)CO`, the melting point lay in the range of 220 to 221 °C.

In turn, `Nc1c(-c2ccc(Cl)cc2)sc2ccccc12` registered a melting point of 152 to 154 °C.

For `CC(=O)Nc1ccc(S(=O)c2ccc(Br)cc2)cc1` (stereo unspecified), the melting point is 190 to 191 °C.

The molecule `Cc1cc(-c2ccc(C(F)(F)F)cc2)cc(-c2ccnc(-c3cccc(N)c3)n2)n1` came in with a melting point of 167 °C.

With `CCOC(=O)C(C)Oc1ccc(Nc2cnc3cc(Cl)ccc3n2)cc1` (stereo unspecified), the melting point is 136 °C.

The molecule `CC(C)(C)c1ccc(C=NOCc2ccc(CC(=O)O)cc2)cc1` showed a melting point of 93.3 to 96.2 °C.

For the molecule `COc1nc(C)cc(C(=O)O)n1`, the melting point was in the range of 161 to 163 °C.

For the molecule `CC(=O)SCC(C(=O)NC(C)C(=O)OCc1ccccc1)C1CCc2ccccc21` (stereo unspecified), the melting point was found to be 95 °C.

The molecule `Cc1noc([C@@H](Cc2ccccc2)NC(=O)[C@@H](Cc2ccc3ccccc3c2)NC(=O)C2CCN(C(=O)OC(C)(C)C)CC2)n1` registered a melting point of 152 to 155 °C.

`NCCn1cnc2c(N)nc3ccccc3c21` came in with a melting point of 265 °C.

`Cc1noc(C)c1C(C)(O)c1ccsc1` (stereo unspecified) had a melting point of 93.5 to 95 °C.

Take `CC(C)(Cc1cccc(C(=O)c2cccc(CC(C)(C)C(=O)O)c2)c1)C(=O)O`: the melting point lay within 46 to 48 °C.

Take `O=C(O)CCC(=NO)c1ccc(-c2ccc(Br)cc2F)cc1`: the melting point lay within 163 to 164 °C.

As for `O=C(Nc1cccc(Cl)c1)ONC1C=NC(c2ccccc2Cl)=c2cc(Cl)ccc2=N1` (stereo unspecified), the melting point was 125 to 137 °C.

For `O=C(c1cc2cc3[nH]c(=O)oc3cc2[nH]1)N1CCC(Cc2ccccc2)CC1`, the melting point is 270 to 271 °C.
